Data taken from patent US20250231185A1, “Coronavirus T Cell Epitopes, Megapools and Uses Thereof” (La Jolla Institute for Immunology, priority 2021, published 2025).
Entries after “also recorded” stand apart in the source; their conditions may differ. Read-outs that look alike come from different tables or passages of the source.

Assays:
CD4+ T cells = settings: cited from earlier work; for Allele(s): HLA class II allele(s) identified as MHC restriction elements of the CD4 epitope; for Restriction: T cell subset (CD4 or CD8) recognizing the SARS-CoV-2 epitope
CD8+ T cells [1] = assay: Meta-analysis of published SARS-CoV-2 CD8 T cell epitope data curated in the IEDB (25 studies); format: cell-based, human; settings: dominant = recognized by 3 or more donors/different studies
CD8+ T cells [2] = settings: cited from earlier work
[3] = SARS-CoV-2-derived CD4 epitopes, Yes = recognized by 3 or more donors/different studies
[4] = SARS-CoV-2-derived CD8 epitopes
[5] = T cell type (CD4 or CD8) recognizing the SARS-CoV-2 epitope
[6] = SARS-CoV-2 Ag S, T cell type recognizing the epitope

90 (ASAFFGMSRIGMEVT) [compound 90]
Allele(s) (CD4+ T cells): DQB1*05:03, DRB1*01:02,; also recorded: DRB1*14:01 | Dominant (CD4+ T cells; [3]): Yes (more dominant epitopes are defined by being recognized by 3 or more donors/different studies) | Restriction (CD4+ T cells): CD4

44 (LGASQRVAGDSGFAA) [compound 44]
Dominant (CD4+ T cells; [3]): Yes (more dominant epitopes are defined by being recognized by 3 or more donors/different studies) | Restriction (CD4+ T cells): CD4

24 (SFNPETNILLNVPLH) [compound 24]
Allele(s) (CD4+ T cells): DRB1*01:02 | Restriction (CD4+ T cells): CD4

79 (KPRQKRTATKAYNVT) [compound 79]
Allele(s) (CD4+ T cells): DPB1*14:01 | Restriction (CD4+ T cells): CD4

29 (SELVIGAVILRGHLR) [compound 29]
Allele(s) (CD4+ T cells): DQB1*06:02, DQB1*06:03,; also recorded: DRB1*01:02, DRB1*13:01,; also recorded: DRB1*14:01, DRB1*15:01,; also recorded: DRB1*16:01 | Dominant (CD4+ T cells; [3]): Yes (more dominant epitopes are defined by being recognized by 3 or more donors/different studies) | Restriction (CD4+ T cells): CD4

53 (ASWFTALTQHGKEDL) [compound 53]
Dominant (CD4+ T cells; [3]): Yes (more dominant epitopes are defined by being recognized by 3 or more donors/different studies) | Restriction (CD4+ T cells): CD4

18 (AIAMACLVGLMWLSY) [compound 18]
Restriction (CD4+ T cells): CD4

73 (AGNGGDAALALLLLD) [compound 73]
Allele(s) (CD4+ T cells): DQB1*03:01, DQB1*06:02 | Dominant (CD4+ T cells; [3]): Yes (more dominant epitopes are defined by being recognized by 3 or more donors/different studies) | Restriction (CD4+ T cells): CD4

76 (GKGQQQQGQTVTKKS) [compound 76]
Restriction (CD4+ T cells): CD4

17 (ITGGIAIAMACLVGL) [compound 17]
Allele(s) (CD4+ T cells): DQB1*03:01 | Restriction (CD4+ T cells): CD4

28 (RPLLESELVIGAVIL) [compound 28]
Allele(s) (CD4+ T cells): DQB1*02:02 | Restriction (CD4+ T cells): CD4

106 (AADLDDFSKQLQQSM) [compound 106]
Restriction (CD4+ T cells): CD4

115 (IATNGPLKVGGSCVL) [compound 115]
Allele(s) (CD4+ T cells): DRB1*13:02 | Restriction (CD4+ T cells): CD4

72 (AIVLQLPQGTTLPKG) [compound 72]
Dominant (CD4+ T cells; [3]): Yes (more dominant epitopes are defined by being recognized by 3 or more donors/different studies) | Restriction (CD4+ T cells): CD4

40 (TSRTLSYYKLGASQRVA) [compound 40]
Dominant (CD4+ T cells; [3]): Yes (more dominant epitopes are defined by being recognized by 3 or more donors/different studies) | Restriction (CD4+ T cells): CD4

88 (WPQIAQFAPSASAFF) [compound 88]
Allele(s) (CD4+ T cells): DQB1*02:02, DQB1*05:03,; also recorded: DRB1*04:04, DRB1*07:01,; also recorded: DRB1*15:01 | Dominant (CD4+ T cells; [3]): Yes (more dominant epitopes are defined by being recognized by 3 or more donors/different studies) | Restriction (CD4+ T cells): CD4

67 (LPYGANKDGIIWVAT) [compound 67]
Restriction (CD4+ T cells): CD4

80 (KRTATKAYNVTQAFG) [compound 80]
Allele(s) (CD4+ T cells): DQB1*06:02, DQB1*06:03 | Dominant (CD4+ T cells; [3]): Yes (more dominant epitopes are defined by being recognized by 3 or more donors/different studies) | Restriction (CD4+ T cells): CD4

75 (LLLLDRLNQLESKMS) [compound 75]
Allele(s) (CD4+ T cells): DQB1*05:01, DRB1*03:01,; also recorded: DRB1*11:01, DRB1*12:01,; also recorded: DRB1*14:01, DRB1*15:01 | Dominant (CD4+ T cells; [3]): Yes (more dominant epitopes are defined by being recognized by 3 or more donors/different studies) | Restriction (CD4+ T cells): CD4

66 (RWYFYYLGTGPEAGL) [compound 66]
Dominant (CD4+ T cells; [3]): Yes (more dominant epitopes are defined by being recognized by 3 or more donors/different studies) | Restriction (CD4+ T cells): CD4

11 (NRNRFLYIIKLIFLW) [compound 11]
Allele(s) (CD4+ T cells): DQB1*02:01, DQB1*05:03,; also recorded: DRB1*03:01, DRB1*12:01 | Restriction (CD4+ T cells): CD4

22 (RLFARTRSMWSFNPE) [compound 22]
Allele(s) (CD4+ T cells): DQB1*05:03, DRB1*14:01 | Restriction (CD4+ T cells): CD4

50 (PQNQRNAPRITFGGP) [compound 50]
Restriction (CD4+ T cells): CD4

7 (NLVIGFLFLTWICLL) [compound 7]
Allele(s) (CD4+ T cells): DQB1*05:01, DRB1*01:02 | Restriction (CD4+ T cells): CD4

103 (QKKQQTVTLLPAADL) [compound 103]
Allele(s) (CD4+ T cells): DRB1*01:02 | Restriction (CD4+ T cells): CD4

33 (RGHLRIAGHHLGRCD) [compound 33]
Allele(s) (CD4+ T cells): DRB1*07:01, DRB1*13:01,; also recorded: DRB1*14:01, DRB1*15:01 | Dominant (CD4+ T cells; [3]): Yes (more dominant epitopes are defined by being recognized by 3 or more donors/different studies) | Restriction (CD4+ T cells): CD4

32 (LRGHLRIAGHHLGRC) [compound 32]
Allele(s) (CD4+ T cells): DRB1*11:01, DRB1*11:04 | Dominant (CD4+ T cells; [3]): Yes (more dominant epitopes are defined by being recognized by 3 or more donors/different studies) | Restriction (CD4+ T cells): CD4

14 (LLWPVTLACFVLAAV) [compound 14]
Allele(s) (CD4+ T cells): DQB1*05:01, DQB1*05:03,; also recorded: DQB1*06:03 | Restriction (CD4+ T cells): CD4

258 (QEEVQELYSPIFLIV) [compound 258]
Dominant (CD4+ T cells; CD4 epitopes, dominant = recognized by 3 or more donors/different studies): Yes (more dominant epitopes are defined by being recognized by 3 or more donors/different studies)

27 (GTILTRPLLESELVI) [compound 27]
Allele(s) (CD4+ T cells): DRB1*13:01 | Restriction (CD4+ T cells): CD4

9 (WICLLQFAYANRNRF) [compound 9]
Allele(s) (CD4+ T cells): DQB1*05:03, DRB1*03:01,; also recorded: DRB1*14:01 | Restriction (CD4+ T cells): CD4

89 (QFAPSASAFFGMSRI) [compound 89]
Allele(s) (CD4+ T cells): DRB1*07:01 | Restriction (CD4+ T cells): CD4

1061 (SYATHSDKF) [compound 1061]
Dominant (CD8+ T cells [1]; [4]): Yes (more dominant epitopes are defined by being recognized by 3 or more donors/different studies) | Restriction (CD8+ T cells [2]; [5]): CD8

1361 (FTISVTTEIL) [compound 1361]
Dominant (CD8+ T cells [1]; SARS-CoV-2 Ag S, CD8 epitopes): Yes (more dominant epitopes are defined by being recognized by 3 or more donors/different studies) | Restriction (CD8+ T cells [2]; [6]): CD8

995 (FYAYLRKHF) [compound 995]
Dominant (CD8+ T cells [1]; [4]): Yes (more dominant epitopes are defined by being recognized by 3 or more donors/different studies) | Restriction (CD8+ T cells [2]; [5]): CD8

1458 (YEQYIKWPWYI) [compound 1458]
Dominant (CD8+ T cells [1]; SARS-CoV-2 Ag S, CD8 epitopes): Yes (more dominant epitopes are defined by being recognized by 3 or more donors/different studies) | Restriction (CD8+ T cells [2]; [6]): CD8

903 (FTYASALWEI) [compound 903]
Dominant (CD8+ T cells [1]; [4]): Yes (more dominant epitopes are defined by being recognized by 3 or more donors/different studies) | Restriction (CD8+ T cells [2]; [5]): CD8

1428 (APHGVVFLHV) [compound 1428]
Dominant (CD8+ T cells [1]; SARS-CoV-2 Ag S, CD8 epitopes): Yes (more dominant epitopes are defined by being recognized by 3 or more donors/different studies) | Restriction (CD8+ T cells [2]; [6]): CD8

1452 (RLNEVAKNL) [compound 1452]
Dominant (CD8+ T cells [1]; SARS-CoV-2 Ag S, CD8 epitopes): Yes (more dominant epitopes are defined by being recognized by 3 or more donors/different studies) | Restriction (CD8+ T cells [2]; [6]): CD8

1351 (VASQSIIAY) [compound 1351]
Dominant (CD8+ T cells [1]; SARS-CoV-2 Ag S, CD8 epitopes): Yes (more dominant epitopes are defined by being recognized by 3 or more donors/different studies) | Restriction (CD8+ T cells [2]; [6]): CD8

1084 (MLWCKDGHV) [compound 1084]
Dominant (CD8+ T cells [1]; [4]): Yes (more dominant epitopes are defined by being recognized by 3 or more donors/different studies) | Restriction (CD8+ T cells [2]; [5]): CD8

1055 (AIMTRCLAV) [compound 1055]
Dominant (CD8+ T cells [1]; [4]): Yes (more dominant epitopes are defined by being recognized by 3 or more donors/different studies) | Restriction (CD8+ T cells [2]; [5]): CD8

914 (VTDTPKGPK) [compound 914]
Dominant (CD8+ T cells [1]; [4]): Yes (more dominant epitopes are defined by being recognized by 3 or more donors/different studies) | Restriction (CD8+ T cells [2]; [5]): CD8

922 (DLKGKYVQI) [compound 922]
Dominant (CD8+ T cells [1]; [4]): Yes (more dominant epitopes are defined by being recognized by 3 or more donors/different studies) | Restriction (CD8+ T cells [2]; [5]): CD8

1072 (KVDGVDVEL) [compound 1072]
Dominant (CD8+ T cells [1]; [4]): Yes (more dominant epitopes are defined by being recognized by 3 or more donors/different studies) | Restriction (CD8+ T cells [2]; [5]): CD8

1421 (YHLMSFPQSA) [compound 1421]
Dominant (CD8+ T cells [1]; SARS-CoV-2 Ag S, CD8 epitopes): Yes (more dominant epitopes are defined by being recognized by 3 or more donors/different studies) | Restriction (CD8+ T cells [2]; [6]): CD8

1313 (YFPLQSYGF) [compound 1313]
Dominant (CD8+ T cells [1]; SARS-CoV-2 Ag S, CD8 epitopes): Yes (more dominant epitopes are defined by being recognized by 3 or more donors/different studies) | Restriction (CD8+ T cells [2]; [6]): CD8

1027 (VYRGTTTYKL) [compound 1027]
Dominant (CD8+ T cells [1]; [4]): Yes (more dominant epitopes are defined by being recognized by 3 or more donors/different studies) | Restriction (CD8+ T cells [2]; [5]): CD8

1442 (GTHWFVTQR) [compound 1442]
Dominant (CD8+ T cells [1]; SARS-CoV-2 Ag S, CD8 epitopes): Yes (more dominant epitopes are defined by being recognized by 3 or more donors/different studies) | Restriction (CD8+ T cells [2]; [6]): CD8

1087 (KMQRMLLEK) [compound 1087]
Dominant (CD8+ T cells [1]; [4]): Yes (more dominant epitopes are defined by being recognized by 3 or more donors/different studies) | Restriction (CD8+ T cells [2]; [5]): CD8

1462 (KWPWYIWLGF) [compound 1462]
Dominant (CD8+ T cells [1]; SARS-CoV-2 Ag S, CD8 epitopes): Yes (more dominant epitopes are defined by being recognized by 3 or more donors/different studies) | Restriction (CD8+ T cells [2]; [6]): CD8

931 (TMADLVYAL) [compound 931]
Dominant (CD8+ T cells [1]; [4]): Yes (more dominant epitopes are defined by being recognized by 3 or more donors/different studies) | Restriction (CD8+ T cells [2]; [5]): CD8

1405 (VLNDILSRL) [compound 1405]
Dominant (CD8+ T cells [1]; SARS-CoV-2 Ag S, CD8 epitopes): Yes (more dominant epitopes are defined by being recognized by 3 or more donors/different studies) | Restriction (CD8+ T cells [2]; [6]): CD8

970 (RLYYDSMSY) [compound 970]
Dominant (CD8+ T cells [1]; [4]): Yes (more dominant epitopes are defined by being recognized by 3 or more donors/different studies) | Restriction (CD8+ T cells [2]; [5]): CD8

1367 (LLQYGSFCT) [compound 1367]
Dominant (CD8+ T cells [1]; SARS-CoV-2 Ag S, CD8 epitopes): Yes (more dominant epitopes are defined by being recognized by 3 or more donors/different studies) | Restriction (CD8+ T cells [2]; [6]): CD8
